Test results published in PubChem BioAssay AID330 (DTP/NCI, 2004).
Where “and” joins values, the source holds several entries; their conditions need not be identical. Identical values can stand only once. Inconclusive results and toxic doses are left out. How the source made its calls: active means survival T/C of 150% or more; inactive means T/C below 125% in these data.

Tested on: P388 leukemia ip, CD2F1 mice, survival T/C
Experiment: NCI In Vivo Anticancer Drug Screen. Data for tumor model P388 Leukemia (intraperitoneal) in CD2F1 (CDF1) mice
Conditions: endpoint: median survival time, higher = longer survival
Summary of the method: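 Mice carrying the transplanted tumor received test compound or vehicle. Survival was recorded in each group, and the value is the treated-group measurement divided by that of the vehicle-treated control group.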

[1] = dose: 100.0 mg/kg/injection, schedule: Q01DX009 (ip), vehicle: saline with Tween-80
[2] = dose: 200.0 mg/kg/injection, schedule: Q01DX009 (ip), vehicle: saline with Tween-80
[3] = dose: 400.0 mg/kg/injection, schedule: Q01DX009 (ip), vehicle: saline with Tween-80
[4] = dose: 60.0 mg/kg/injection, schedule: Q01DX005 (ip), vehicle: saline with Tween-80
[5] = dose: 120.0 mg/kg/injection, schedule: Q01DX005 (ip), vehicle: saline with Tween-80
[6] = dose: 240.0 mg/kg/injection, schedule: Q01DX005 (ip), vehicle: saline with Tween-80
[7] = dose: 100.0 mg/kg/injection, schedule: Q04DX003 (ip), vehicle: saline with Tween-80
[8] = dose: 200.0 mg/kg/injection, schedule: Q04DX003 (ip), vehicle: saline with Tween-80
[9] = dose: 400.0 mg/kg/injection, schedule: Q04DX003 (ip), vehicle: saline with Tween-80
[10] = dose: 12.5 mg/kg/injection, schedule: Q01DX009 (ip), vehicle: saline with Tween-80
[11] = dose: 25.0 mg/kg/injection, schedule: Q01DX009 (ip), vehicle: saline with Tween-80
[12] = dose: 50.0 mg/kg/injection, schedule: Q01DX009 (ip), vehicle: saline with Tween-80

Measured: T/C

COc1cc2cnc(-c3ccncc3)c(N)c2cc1OC
inactive: dose: 100.0 mg/kg/injection, schedule: Q04DX003 (ip), vehicle: suspension in saline 100 % of control | dose: 200.0 mg/kg/injection, schedule: Q04DX003 (ip), vehicle: suspension in saline 93 % of control | dose: 400.0 mg/kg/injection, schedule: Q04DX003 (ip), vehicle: suspension in saline 89 % of control

N#CC(C(=O)N1CCCC1)=C(S)S
inactive: [1] 100 % of control | [2] 100 % of control | [3] 100 % of control

O=C(CC(=O)c1ccc(Cl)s1)C(=O)NC1C2CC3CC(C2)CC1C3 (stereo not given)
inactive: dose: 7.5 mg/kg/injection, schedule: Q01DX005 (ip), vehicle: saline with Tween-80 100 % of control | dose: 15.0 mg/kg/injection, schedule: Q01DX005 (ip), vehicle: saline with Tween-80 102 % of control | dose: 30.0 mg/kg/injection, schedule: Q01DX005 (ip), vehicle: saline with Tween-80 100 % of control | [4] 94 % of control and 95 % of control

CCc1c(-c2ccccc2)nc(N(C)C)oc1=O
inactive: [4] 106 % of control | [5] 100 % of control | [6] 98 % of control

CCCCCC1(CCCCCCCC(=O)OCC)OCCO1
inactive: dose: 100.0 mg/kg/injection, schedule: Q04DX003 (ip), vehicle: Klucel (hydroxypropylcellulose) (HPC) 97 % of control | dose: 200.0 mg/kg/injection, schedule: Q04DX003 (ip), vehicle: Klucel (hydroxypropylcellulose) (HPC) 103 % of control | dose: 400.0 mg/kg/injection, schedule: Q04DX003 (ip), vehicle: Klucel (hydroxypropylcellulose) (HPC) 97 % of control

CN(C)C(n1cc2c(c1)-c1ccc(Cl)cc1C(c1ccccc1F)=NC2)n1cc2c(c1)-c1ccc(Cl)cc1C(c1ccccc1F)=NC2
inactive: [4] 93 % of control | [5] 92 % of control | [6] 91 % of control

COc1ccccc1C1COC(c2ccccc2)(c2ccccc2)S1 (stereo not given)
inactive: dose: 25.0 mg/kg/injection, schedule: Q01DX009 (ip), vehicle: saline 108 % of control | dose: 50.0 mg/kg/injection, schedule: Q01DX009 (ip), vehicle: saline 108 % of control | dose: 100.0 mg/kg/injection, schedule: Q01DX009 (ip), vehicle: saline 108 % of control

O=C(C(=S)c1ccccc1)N(Cc1ccccc1)Cc1ccccc1
inactive: [7] 108 % of control | [8] 103 % of control | [9] 103 % of control

O=C(NCc1ccncc1)Nc1ccc(Cc2ccc(NC(=O)NCc3ccncc3)cc2)cc1
inactive: dose: 50.0 mg/kg/injection, schedule: Q01DX009 (ip), vehicle: Klucel (hydroxypropylcellulose) (HPC) 105 % of control | dose: 100.0 mg/kg/injection, schedule: Q01DX009 (ip), vehicle: Klucel (hydroxypropylcellulose) (HPC) 102 % of control | dose: 200.0 mg/kg/injection, schedule: Q01DX009 (ip), vehicle: Klucel (hydroxypropylcellulose) (HPC) 103 % of control

CCOCc1c(-c2ccccc2)sc2ccccc2c1=O
inactive: dose: 60.0 mg/kg/injection, schedule: Q01DX005 (ip), vehicle: Klucel (hydroxypropylcellulose) (HPC) 98 % of control | dose: 120.0 mg/kg/injection, schedule: Q01DX005 (ip), vehicle: Klucel (hydroxypropylcellulose) (HPC) 95 % of control | dose: 240.0 mg/kg/injection, schedule: Q01DX005 (ip), vehicle: Klucel (hydroxypropylcellulose) (HPC) 92 % of control

Cc1ccc(OCC2CO2)c(Br)c1 (stereo not given)
inactive: dose: 25.0 mg/kg/injection, schedule: Q01DX005 (ip), vehicle: saline with Tween-80 101 % of control and 104 % of control | dose: 50.0 mg/kg/injection, schedule: Q01DX005 (ip), vehicle: saline with Tween-80 100 % of control and 106 % of control (2×) | dose: 100.0 mg/kg/injection, schedule: Q01DX005 (ip), vehicle: saline with Tween-80 101 % of control and 96 % of control | dose: 200.0 mg/kg/injection, schedule: Q01DX005 (ip), vehicle: saline with Tween-80 101 % of control and 105 % of control and 111 % of control

CCCCCCC(=O)/C=C/c1ccccc1OC(=O)/C=C/c1ccccc1
inactive: dose: 50.0 mg/kg/injection, schedule: Q01DX005 (ip), vehicle: saline + alcohol 96 % of control | dose: 100.0 mg/kg/injection, schedule: Q01DX005 (ip), vehicle: saline + alcohol 92 % of control

CN=C1SC(C)(C)NN1C
inactive: dose: 12.5 mg/kg/injection, schedule: Q01DX005 (ip), vehicle: Klucel (hydroxypropylcellulose) (HPC) 104 % of control | dose: 25.0 mg/kg/injection, schedule: Q01DX005 (ip), vehicle: Klucel (hydroxypropylcellulose) (HPC) 104 % of control | dose: 50.0 mg/kg/injection, schedule: Q01DX005 (ip), vehicle: Klucel (hydroxypropylcellulose) (HPC) 101 % of control and 114 % of control

CC(=O)c1ccc2ccccc2n1
inactive: dose: 25.0 mg/kg/injection, schedule: Q01DX009 (ip), vehicle: other 102 % of control | dose: 50.0 mg/kg/injection, schedule: Q01DX009 (ip), vehicle: other 105 % of control | dose: 100.0 mg/kg/injection, schedule: Q01DX009 (ip), vehicle: other 111 % of control | dose: 200.0 mg/kg/injection, schedule: Q01DX009 (ip), vehicle: other 114 % of control | dose: 400.0 mg/kg/injection, schedule: Q01DX009 (ip), vehicle: other 114 % of control

CC(C)OC(=O)Oc1cccs1
inactive: [10] 100 % of control | [11] 109 % of control | [12] 100 % of control

S=C1Nc2ccccc2C2CC=NN12 (stereo not given)
inactive: [10] 91 % of control | [11] 112 % of control | [12] 88 % of control and 96 % of control | [2] 86 % of control

CC1=NN(C(=O)c2ccccc2)C(=O)C1N=Nc1ccc(Cl)cc1 (stereo not given)
inactive: dose: 100.0 mg/kg/injection, schedule: Q01DX001 (ip), vehicle: saline with Tween-80 94 % of control | dose: 200.0 mg/kg/injection, schedule: Q01DX001 (ip), vehicle: saline with Tween-80 94 % of control | dose: 400.0 mg/kg/injection, schedule: Q01DX001 (ip), vehicle: saline with Tween-80 88 % of control

O=S(=O)(Nc1ccc(Br)cc1)c1ccccc1
inactive: [1] 100 % of control | [7] 100 % of control | [2] 90 % of control | [8] 95 % of control | [3] 100 % of control | [9] 91 % of control

CCOC(=O)C(C)P(=O)(OC)OC (stereo not given)
inactive: dose: 50.0 mg/kg/injection, schedule: Q01DX005 (ip), vehicle: saline 100 % of control | dose: 100.0 mg/kg/injection, schedule: Q01DX005 (ip), vehicle: saline 98 % of control | dose: 200.0 mg/kg/injection, schedule: Q01DX005 (ip), vehicle: saline 103 % of control

CC(=O)C(=O)C1=C2CCCN2CCc2cc3c(cc21)OCO3
inactive: dose: 6.25 mg/kg/injection, schedule: Q01DX009 (ip), vehicle: water 92 % of control | dose: 12.5 mg/kg/injection, schedule: Q01DX009 (ip), vehicle: water 98 % of control | dose: 25.0 mg/kg/injection, schedule: Q01DX009 (ip), vehicle: water 93 % of control | dose: 50.0 mg/kg/injection, schedule: Q01DX009 (ip), vehicle: water 101 % of control | dose: 100.0 mg/kg/injection, schedule: Q01DX009 (ip), vehicle: water 99 % of control

C/C1=C2N=C(/C=C3N=C(/C(C)=C4\[N-]C(C(CC(N)=O)C4(C)CCC(=O)NCC(C)OP(=O)(O)OC4C(CO)OC(n5cnc6cc(C)c(C)cc65)C4O)C4(C)N=C1C(CCC(N)=O)C4(C)CC(N)=O)C(CCC(N)=O)C\3(C)C)C(CCC(N)=O)C/2(C)CC(N)=O.[CH2-]C1OC(n2cnc3c(N)ncnc32)C(O)C1O.[Co+2] (stereo not given)
inactive: dose: 8.8 micrograms/kg/injection, schedule: Q#A X Z (ip), vehicle: water 90 % of control | dose: 88.3 micrograms/kg/injection, schedule: Q#A X Z (ip), vehicle: water 97 % of control | dose: 8830.0 micrograms/kg/injection, schedule: Q#A X Z (ip), vehicle: water 89 % of control

CC1(CCl)Nc2ccccc2C(=O)N1c1ccc(F)cc1 (stereo not given)
inactive: [12] 103 % of control | [1] 95 % of control | [2] 95 % of control
